# From PMC6148246, “HS-1371, a novel kinase inhibitor of RIP3-mediated necroptosis” (Experimental & Molecular Medicine, 2018)
# Assays:
# [1] = target: T1, necrosome complex (Homo sapiens, UniProt Q9Y572); assay: Necrosome complex formation, anti-RIP3 immunoprecipitation in HT-29 cells; assay type: cell-based; conditions: HT-29, 5 μM pretreated 2 h, TSZ 4 h
# T1 construct: endogenous in cells; host or cells: HT-29
# Protocol: (§1) Cells were rinsed in cold phosphate-buffered saline (PBS) and lysed in M2 buffer containing 20 mM Tris at pH 7, 0.5% NP-40, 250 mM NaCl, 3 mM EDTA, 3 mM EGTA, 2 mM DTT, 0.5 mM PMSF, 20 mM β-glycerol phosphate, 1 mM sodium vanadate, and 1 μg/mL leupeptin. The cell extracts were subjected to western blot analysis. For immunoprecipitation, lysates were mixed and precipitated with antibody and protein A-agarose beads overnight or for 4 h at 4 °C. Bound proteins were removed by boiling in SDS and resolved by SDS-PAGE, and immunoblotting was visualized by enhanced chemiluminescence (ECL, Amersham).
# Fig. 2 Novel inhibitors can block RIP3 S227 phosphorylation. a Western blotting showing various kinase inhibitor effects on RIP3 S227 auto-phosphorylation. HT-29 cells were treated with four tested kinase inhibitors (1308, 1336, 1338, and 1371, 10 μM) for 9 h. As a control, KK5101 (Trk alpha inhibitor) and HS829 (IKK beta inhibitor) were also treated at a concentration of 10 μM for 9 h. […] HT-29 cells were treated with 4 tested kinase inhibitors for 24 h, and cell viability was analyzed by MTT assay or phase-contrast microscopy. […] Cell lysates were analyzed by immunoblotting. f HT-29 cells were pretreated with Nec-1 (40 μM), DAB (5 μM) or HS-1371 (5 μM) for 2 h and then treated with TSZ for 4 h. […] Immunoprecipitates and total lysates were analyzed by Western blotting
# [2] = tested on: RIP3 or MLKL-deficient cells; assay: TSZ treatment of RIP3 or MLKL knockdown HT-29 cells (MTT assay); assay type: cell-based, human; conditions: HT-29 shRIP3 or shMLKL, TSZ 24 h
# Protocol: MISSION short-hairpin RNA (shRNA) plasmids targeting hRIP3 mRNA (NM_006871), hMLKL mRNA (NM_152649), and non-targeting control sequences (NM_027088) were obtained from Sigma-Aldrich. Lentiviral plasmids were transfected into 293TN cells (System Biosciences, LV900A-1) using Lipofectamine 2000 (Invitrogen, 11668019). Pseudoviral particles were collected 2 days after the transfection and infected into cells with polybrene (8 μg/mL). Infected cells were puromycin selected two days after infection, and knockdown was confirmed by immunoblotting.
# HT-29 cells expressing RIP3 shRNA, MLKL shRNA, or non-silencing control were analyzed by western blotting (upper panel), and these cells were treated with TSZ (6 h for immunoblotting, 24 h for cell death assay). Cell lysates were analyzed by immunoblotting (middle panel), and cell viability was analyzed by MTT assay (bottom panel). The results are presented as means ± SEM. *P < 0.05, **P < 0.01, ***P < 0.001. b HS-1371 protected cells not only from TNF-induced necroptosis but also from TRAIL-induced necroptosis. […] Cell lysates were analyzed by immunoblotting, and cell viability was analyzed by MTT assay or phase-contrast microscopy. […] Cell lysates were analyzed by immunoblotting, and cell viability was analyzed by MTT assay (TC) or CellTiter-Glo Luminescent Cell Viability Assay Kit (TS). […]
# [3] = tested on: HT-29 cells; assay: TNF-induced apoptosis in HT-29 cells (TC or TS); assay type: cell-based, human; conditions: HT-29, 5 μM pretreated 2 h
# Protocol: HT-29 cells expressing RIP3 shRNA, MLKL shRNA, or non-silencing control were analyzed by western blotting (upper panel), and these cells were treated with TSZ (6 h for immunoblotting, 24 h for cell death assay). Cell lysates were analyzed by immunoblotting (middle panel), and cell viability was analyzed by MTT assay (bottom panel). The results are presented as means ± SEM. *P < 0.05, **P < 0.01, ***P < 0.001. b HS-1371 protected cells not only from TNF-induced necroptosis but also from TRAIL-induced necroptosis. HT-29 cells were pretreated with indicated concentrations of HS-1371 and then treated with TRAIL + Smac + zVAD (6 h for immunoblotting, 24 h for cell death assay). Cell lysates were analyzed by immunoblotting, and cell viability was analyzed by MTT assay or phase-contrast microscopy. The results are presented as means ± SEM. *P < 0.05, **P < 0.01, ***P < 0.001. c, d HS-1371 had no effect on TNF-induced apoptosis. HT-29 cells were pretreated with HS-1371 (5 μM) for 2 h and then treated with TC or TS (TNF + either cycloheximide or SMAC mimetic, hereafter referred to as TC or TS, 6 h for immunoblotting, 24 h (TC) or 36 h (TS) for cell death assay). Cell lysates were analyzed by immunoblotting, and cell viability was analyzed by MTT assay (TC) or CellTiter-Glo Luminescent Cell Viability Assay Kit (TS). The results are presented as means ± SEM. *P < 0.05, **P < 0.01, ***P < 0.001
# [4] = tested on: mouse embryonic fibroblast (MEF) cells; assay: TCZ-induced necroptosis in MEF cells; assay type: cell-based; conditions: TNF plus cycloheximide and zVAD (TCZ)
# Protocol: Cells were pretreated with DAB or HS-1371 for 2 h and then treated with TSZ (6 h for immunoblotting, 24 h for cell death assay). Cell lysates were analyzed by immunoblotting (left bottom panel), and cell viability was analyzed by MTT assay (right panel). The results are presented as means ± SEM. *P < 0.05, **P < 0.01, ***P < 0.001. c, d HS-1371 had the same effect on mouse cells. L929 (mouse sarcoma, c) and MEF (mouse embryonic fibroblast, d) cells were pretreated with inhibitors and then necroptosis was induced by TNF. Cell lysates were analyzed by immunoblotting (upper panel), and cell viability was analyzed by MTT assay (bottom panel). The results are presented as means ± SEM. *P < 0.05, **P < 0.01, ***P < 0.001
# [5] = target: RIP3 (Homo sapiens, UniProt Q9Y572); assay: Basal S227 auto-phosphorylation of RIP3 in HT-29 cells (immunoblot); assay type: cell-based; set-up: RIP3-expressing HT-29 cells; endogenous in cells; host or cells: HT-29; conditions: 10 μM, 9 h
# Sequence of RIP3 (Q9Y572 whole entry): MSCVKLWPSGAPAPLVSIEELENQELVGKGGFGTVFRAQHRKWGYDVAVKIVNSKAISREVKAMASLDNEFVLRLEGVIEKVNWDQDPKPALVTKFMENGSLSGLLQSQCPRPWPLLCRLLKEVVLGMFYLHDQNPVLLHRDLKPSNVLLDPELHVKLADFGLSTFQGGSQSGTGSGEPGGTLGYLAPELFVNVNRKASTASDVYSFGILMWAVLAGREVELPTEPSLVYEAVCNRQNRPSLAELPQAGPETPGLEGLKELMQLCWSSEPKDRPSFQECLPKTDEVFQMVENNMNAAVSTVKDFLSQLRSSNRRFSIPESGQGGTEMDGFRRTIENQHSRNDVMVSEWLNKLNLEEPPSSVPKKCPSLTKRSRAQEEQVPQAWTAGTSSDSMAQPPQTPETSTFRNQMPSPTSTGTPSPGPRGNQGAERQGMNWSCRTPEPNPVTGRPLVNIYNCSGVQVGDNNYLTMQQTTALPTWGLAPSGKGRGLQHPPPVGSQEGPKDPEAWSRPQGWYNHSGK
# Protocol: as §1
# RIP3 kinase activity is essential for TNF-induced necroptosis, and human S227 auto-phosphorylation sites of RIP3 are required for the interaction of RIP3 with its substrate MLKL[13],[14], which is indispensable for downstream necroptotic cell death signaling. To test the possible effects of the RIP3 inhibitors on necroptosis, HT-29 cells were treated with the kinase inhibitors, and RIP3 kinase activity was determined by examining its phosphorylation status.
# Fig. 2 Novel inhibitors can block RIP3 S227 phosphorylation. a Western blotting showing various kinase inhibitor effects on RIP3 S227 auto-phosphorylation. HT-29 cells were treated with four tested kinase inhibitors (1308, 1336, 1338, and 1371, 10 μM) for 9 h. As a control, KK5101 (Trk alpha inhibitor) and HS829 (IKK beta inhibitor) were also treated at a concentration of 10 μM for 9 h. Prototypical necroptosis stimuli (TNF + zVAD + either cycloheximide or SMAC mimetic; hereafter referred to as TCZ or TSZ) were applied for 6 h. […] HT-29 cells were treated with 4 tested kinase inhibitors for 24 h, and cell viability was analyzed by MTT assay or phase-contrast microscopy. […] HT-29 cells were pretreated with necrostatin-1 (Nec-1, 40 μM), dabrafenib (DAB, 10 μM) or necrosulfonamide (NSA, 1 μM) for 2 h and then treated with TSZ for 6 h. […] HT-29 cells were pretreated with four tested kinase inhibitors for 2 h and then treated with TSZ for 6 h. Cell lysates were analyzed by immunoblotting. f HT-29 cells were pretreated with Nec-1 (40 μM), DAB (5 μM) or HS-1371 (5 μM) for 2 h and then treated with TSZ for 4 h. Cell lysates were immunoprecipitated with anti-RIP3 antibody. Immunoprecipitates and total lysates were analyzed by Western blotting
# T1 sequence (Q9Y572 whole entry, one chain of several): as the sequence (Q9Y572 whole entry) above
smiles,measurement,setting,value
"Cc1ccc(Oc2ccnc3cc(-c4cnn(C5CCNCC5)c4)ccc23)cc1 [HS-1371, 7-(1-(Piperidin-4-yl)-1H-pyrazol-4-yl)-4-(p-tolyloxy)quinoline]",necrosome complex formation (MLKL recruitment),[1],blocked necrosome complex formation
same,cell viability in RIP3 or MLKL-deficient cells treated with TSZ,[2],did not obviously affect cell viability
same,apoptosis induced by TNF plus CHX,"[3]; TC 24 h, MTT",did not inhibit
same,apoptosis induced by TNF plus Smac mimetic,"[3]; TS 36 h, CellTiter-Glo",did not inhibit
same,MLKL phosphorylation and cell death,[4],effectively prevented
same,effect on S227 auto-phosphorylation of RIP3 at the basal level,[5],inhibitory effect
